Test results as given in patent US8637050B2, “Peptide vaccines against group A streptococci” (The United States of America, as represented by the …, priority 2001, dated 2014).
No end group written: not given here.

Columns and labels:
[1] = tested on: rabbit sera prepared against whole M protein; test: ELISA: peptide recognition by anti-M protein rabbit sera; type: binding; details: for immunoreactivity of peptide with anti-M protein rabbit sera (ELISA): rabbit sera against whole M protein of the respective serotype
Protocol: Overlapping peptides representing each M type were assessed for their immunogenicity using ELISA and dot-immunoblot.
(§1) Levels of anti-M protein antibodies in mouse sera were determined by an enzyme-linked immunosorbent assay (ELISA) using either synthetic peptides or whole M protein as antigen. Microtiter plates (DYNEX Immulon 2 HB) were coated with 10 μg/ml antigen in 10 mM phosphate-buffered saline (PBS) at 4° C. overnight. Plates were rinsed three times with wash buffer (0.05% Tween 20 in 10 mM PBS, pH 7.2) and blocked with 1% BSA in PBS for one hour at 37° C. The appropriate test sera were applied at a starting dilution of 1:1000 and serially diluted two fold down the plate in PBS. Plates were incubated at 37° C. for 30 minutes and subsequently rinsed three times. Goat anti-rabbit or goat anti-mouse Ig-peroxidase conjugate diluted 1:10,000 in PBS was added to all wells and incubated for two hours at 37° C. Plates were rinsed three times with wash buffer and freshly prepared TMB peroxidase (Kirkegaard and Perry Laboratories) was added. Reactions were quenched with 0.18 M H2SO4 after 30 minutes at room temperature and OD450 was measured with a Labsystems Multiskan plate reader using Ascent software. ELISA titers are expressed as the reciprocal of the last dilution which gave a reading OD450>0.10.
The immunoreactivity of several synthetic peptides was determined by ELISA using rabbit sera prepared against whole M protein. The synthetic peptides are representative of relatively small portions of the M protein N-terminus; therefore, it was advantageous to determine if the epitopes contained within particular peptides were immunoreactive with sera prepared against whole M protein. It was shown that the whole anti-M protein rabbit sera of the respective serotypes could bind to each of the synthetic peptides within that serotype. However, some peptides were more highly immunoreactive than others, thus being better suited for use in the animal studies.

[2] = tested on: anti-M protein antibodies in mouse sera; test: ELISA of sera of mice immunized s.c. with peptide in alum (immunogenicity); type: in vivo, mice (Swiss Webster)
Protocol: as §1
(§2) Mice (6 week old female Swiss Webster, Harley-Sprague) were immunized subcutaneously (s.c.) with either the peptide in alum or alum alone for control groups. Peptides were rotated in the alum mixture for 2 hours at 4° C. and stored at 4° C. overnight prior to use.

GAS = test: Opsonophagocytosis assay in vitro with sera of immunized mice; type: cell-based, Group A streptococci; details: human whole blood, 3 hours
Protocol: (§3) Opsonophagocytosis assays were performed as previously described in Lancefield, R. C., Persistence of type-specific antibodies in man following infection with group A streptococci, 1959, J. Immunol., 89:307. Briefly, diluted serum (50 μl) was added to mid-log phase GAS (10^3 CFU) in Todd-Hewitt broth (50 μl) and whole, heparinized blood (500 μl) from a nonopsonic human donor. Mixtures were briefly vortexed and placed at 37° C. in a shaker for 3 hours. Dilutions were then plated on trypticase soy agar plates (5% sheep blood) to quantitate viable organisms. The % killing is expressed as [(CFU control-CFU test)/CFU control]×100.
Each of the sera tested positive in the assay and was able to reduce the amount of viable bacteria relative to controls.

GAS M type M12 = test: Opsonophagocytosis / bactericidal activity in vitro, GAS M type M12; type: cell-based, Group A streptococci
Protocol: as §3
(§4) Some of the peptides tested in the previous examples were tested for cross-type protection using the methods described above. […] The peptide tested and serotype against which it was tested is indicated.

GAS M type M3 = test: Opsonophagocytosis / bactericidal activity in vitro, GAS M type M3; type: cell-based, Group A streptococci
Protocol: as §3, §4

GAS M type M43 = test: Opsonophagocytosis / bactericidal activity in vitro, heterologous GAS M type M43; type: cell-based, Group A streptococci
Protocol: as §3, §4

streptococci (GAS) = test: Nasopharyngeal colonization challenge in vaccinated mice; type: in vivo; details: vaccinated mice relative to alum-only control mice; nasal wash 24 hours after 10^4 CFU challenge
Protocol: as §2
(§5) Mice were challenged intranasally one week after the final booster injection was administered. Prior to being challenged, mice were anesthetized with a ketamine/xylazine mixture. Mice were then given 10^4-10^5 CFU (10 μl) of streptococci intranasally via a microliter pipette. They were sacrificed 24 hours after the challenge and the nasopharyngeal passages were washed with approximately 100 μl physiological saline which was collected and immediately placed on ice. Dilutions of the wash were then plated on trypticase soy agar plates (5% sheep blood) and incubated at 37° C. for 18 hours to quantitate viable organisms. Nasopharyngeal colonization in immunized mice was compared to non-immunized controls. Statistical analysis of the NP data was accomplished using the t-test and rank sum test.
Nasopharyngeal (NP) colonization challenge experiments were performed on mice vaccinated (s.c.) with either M3-1 or M3-2 peptide in alum in comparison to control animals which received alum only. The nasopharyngeal colonization challenge was performed by doing a nasal wash 24 hours after challenge. […]

GAS M type M3 or M43 = test: Reduction of colonization in mice, colonizing GAS M type M3 or M43; type: in vivo
Protocol: as §2, §5
Some of the peptides were tested for reduction of colonization of GAS in mice. […] The peptides were administered together but were not chemically combined in any way. […] Some of the mice were colonized by M3, and some of the mice were colonized by M43.

GAS M type M1 [3] = test: Opsonophagocytosis / bactericidal activity in vitro, GAS M type M1; type: cell-based, Group A streptococci
Protocol: as §3, §4

GAS M type M1 [4] = test: Reduction of colonization in mice, colonizing GAS M type M1; type: in vivo

Sequence	immunoreactivity of peptide with anti-M protein rabbit sera (ELISA) [1]	ELISA (elicitation of antibodies) [2]	Opsono (in vitro) (GAS)	% CFU reduction (GAS M type M12)	reduction of M3 type bacteria (GAS M type M3; in vitro versus control)	% CFU reduction (GAS M type M3; in vitro, GAS M type M3)	reduction of M43 type bacteria (GAS M type M43; in vitro versus control)	% CFU reduction (GAS M type M43; in vitro, heterologous GAS M type M43)	Reduction of colonization (streptococci (GAS))	cross-type protection in vivo (GAS M type M3 or M43; mice colonized by M3 or M43)	% CFU reduction (GAS M type M3 or M43; mice, colonizing GAS M type M3 or M43, reduction overall)	immunoreactivity by ELISA using rabbit sera prepared against whole M protein [1]	% CFU reduction (GAS M type M1 [3])	% CFU reduction (GAS M type M1 [4])
CDHSDLVAEKQRLEDLGQKFE [Peptide M12-1]	highest reactivity	yes	yes	70-80%	–	–	–	–	–	–	–	–	–	–
CGEFPRHVKLKNEIENLLDQV [Peptide M3-2]	highest reactivity	yes	yes	–	significantly reduce	90-95%	significantly reduce	60-80%	67%	capable in vivo of cross-type protection	67% (P < 0.30)	–	–	–
CIRLRHENKDLKARLENAMEV [Peptide M1-3]	–	yes	yes	–	–	–	–	–	–	–	–	confirmed	80-95%	90% (P < 0.10)
